Test results taken from patent publication US6020374A, “Biologically active synthetic dye compounds” (priority 1998, dated 2000).
Converted amounts (≈) assume the structure as drawn.

Assays:
Format in all cases: cell-based
[1] = tested on: 185 kDa protein(s) (p185); assay: Tyrosine phosphorylation of p185 in MCF-7 cells (anti-phosphotyrosine immunoblot); conditions: MCF-7 cells; for Tyrosine phosphorylation of a 185 kDa protein(s): ATA, EB each at 300 μg/ml, IGF-1 at 20 ng/ml; for Exposure time at which p185 phosphorylation peaked: 300 μg/ml ATA, 30 μg/ml EB
Method: FIG. 1 is the effect of ATA and EB on tyrosine phosphorylation: MCF-7 cells, grown in 35 mm dishes were solubilized in Buffer A (a) or Buffer B (b-c). The solubilized cells were subjected to 7.5% SDS-PAGE and immunoblotted with an anti-phosphotyrosine antibody. (a) Cells treated for 5 mins. with ATA, EB, each at 300 μg/ml, IGF-1 at 20 ng/ml, or without additives (CON); (b) Cells treated with 300 μg/ml ATA for the indicated times; (c) Cells treated with 30 μg/ml EB for the indicated times; (d) Cells treated for 5 mins. with the indicated concentrations of ATA; (e) Cells treated for 5 mins. with the indicated concentrations of EB. Molecular mass markers (in kDa) are indicated on the right.
FIG. 2 is the effect of ATA and vanadate on the IGF-1 stimulated tyrosine phosphorylation of p185: A--Cells treated for 5 mins. with the indicated concentrations of IGF-1 in the presence or absence of 300 μg/ml ATA; B--Cells pre-incubated for 3 hours with or without 50 μM vanadate were incubated for 5 mins. with ATA, EB each at 300 μg/ml or with 10 ng/ml IGF-1 in the presence or absence of vanadate. Cytosols extracted in Buffer B were analyzed by immunoblotting with anti-phosphotyrosine antibody as in FIG. 1.
FIG. 8 is the effect of fractionated ATA on p185 phosphorylation: A--Crude ATA was separated on a Bio-Rad P-4 column and the combined void volume was then gel filtrated on a column of Bio-Rad P-10. The column was calibrated with the following molecular weight markers: DB-Dextran blue; CC-cytochrome C: Ins-insulin; B12-Vitamin B12. B--MCF-7 cells were incubated for 5 mins. with the indicated fractions of ATA (eluted from the P-10 column shown in A), crude ATA, each at 200 μg/ml or IGF-1 at 20 ng/ml. Cytosols, solubilized in Buffer B were subjected to 7.5% SDS-PAGE and immunoblotted with phosphotyrosine antibody.
MCF-7 cells were grown in 35 or 100 mm dishes in DMEM with 5% bovine fetal serum. Rat hepato FaO cells were grown in RPMI 1640 medium supplemented with 10% fetal calf serum. Subconfluent monolayers of MCF-7 cells or FaO cells, were deprived of serum for 20 hours prior to each experiment. The medium was removed, and cells were incubated at 37° C. under the conditions as indicated for each experiment. The reaction was terminated by removing the medium and freezing the monolayers with liquid nitrogen. In some experiments, cells were preincubated with 50 μM sodium orthovanadate for 3 hours.
Cells were solubilized at 4° C. with 0.2 ml/35 mm dish or 2 ml/100 mm dish of the indicated buffer. The solubilized cells were scraped and sedimented by centrifugation at 12,000×g for 30 mins. at 4° C. Aliquots of the supernatants were normalized for protein, mixed with concentrated (5×) Laemmli sample buffer, boiled for 10 mins. and resolved on 7.5 or 12% SDS-PAGE under reducing conditions.
(§1) Nitrocellulose blots of proteins were incubated with the antibodies, and proteins were detected by enhanced chemiluminescence using horseradish peroxidase-labeled protein A, horseradish peroxidase-labeled anti rabbit IgG or horseradish peroxidase-labeled anti-mouse IgG.

MCF-7 cells = assay: Cell death estimation, cycloheximide-exposed MCF-7 cells (trypan blue); conditions: for Effect on percent of dead cells: cells exposed to CX for 48 hours, compared with Control not exposed to CX
Method: Subconfluent cultures of MCF-7 cells in 35 mm dishes, were deprived of serum for 20 hours and then exposed to 30 μg/ml cycloheximide in the presence or absence of increasing concentrations of fractionated ATA, crude ATA or EB. After 48 hours, the cells were detached with trypsin. The medium and the detached cells were pooled and centrifuged at 1000×g for 10 mins. Cell viability was estimated by adding an equivalent volume of trypan blue solution to an aliquot of suspended cells. Stained and unstained cells were counted on a hemocytometer (10^3 cells were counted for each determination).
Subconfluent, 20 hours starved MCF-7 cells were exposed to 30 μg/ml
of cycloheximide in the presence of increasing
concentrations of fractionated ATA (0, 6, 12, 25, 50 μg/ml). After
48 hours, percent of dead cells was
determined as described under "Experimental procedures". In the
presence of cycloheximide only, 60-70% of
the cells were dead after 48 hours.
Cultures of […] cells were exposed to 30 μg CX for 48 hours in the presence of EB, ATA, IGF-1, or nothing.

IRS-2 = IRS-2 association with p85 of PI3-kinase in MCF-7 cells; conditions: 5 mins., ATA or EB 300 μg/ml, IGF-1 20 ng/ml
Method: FIG. 4 is the effect of ATA and EB on tyrosine phosphorylation of IRS-2: MCF-7 cells were treated as in FIG. 3. Total cell extracts, solubilized in Buffer C, were immunoprecipitated with an antibody to IRS-2. The immunocomplexes, precipitated with protein A-Sepharose beads were subjected to 7.5% SDS-PAGE, followed by immunoblotting with a phosphotyrosine antibody and an antibody to the 85-kDA subunit of PI3-kinase.
Cells were solubilized in Buffer A or C. Extracts were immunoprecipitated at 4° C. with antibodies to IRS-1, IRS-2, IGF-1 or IR receptor or Grb2, adsorbed on protein A-Sepharose beads. The immunocomplexes were pelleted by centrifugation at 12,000×g and washed twice with Buffer A, and twice with Buffer A containing 0.1% Triton x-100. The pellets were then suspended in Laemmli sample buffer and resolved on 7.5% SDS-PAGE.
as §1
MCF-7 cells were stimulated with ATA, EB or IGF-1, solubilized and immunoprecipitated with anti IRS-1 or IRS-2 antibodies, separated by SDS-PAGE and immunoblotted with anti-phosphotyrosine antibody. […] The association of IRS-1 with Grb-2 was evaluated in lysates from treated cells which were immunoblotted with antibodies to either phosphotyrosine or IRS-1.

PI3-kinase = assay: Anti-IRS-1 precipitable PI3-kinase activity in MCF-7 cells; conditions: 5 mins., ATA or EB 300 μg/ml
Method: FIG. 5 is the effect of ATA and EB on the anti-IRS-1 precipitable PI3-kinase activity: Cells were treated as in FIG. 3a. Anti-IRS-1 immunoprecipitates were washed and the pellets incubated with phosphatidyl inositol and γ^32 P-ATP.
Phosphorylation of phosphatidyl inositol was measured as follows. Cells were solubilized in Buffer C and the extracts immunoprecipitated at 4° C. with IRS-1 antibody and adsorbed onto protein A-Sepharose beads. The immunoprecipitates were washed three times with Buffer C and then washed once with Buffer B, Buffer E and Buffer F. The lipid kinase reaction was initated by addition of 100 μl sonicated phosphatidylinositol (10 μg) in kinase buffer (20 mM Hepes, pH 7.5, 10 mM MnCl2 and 10 mM MgCl2) containing 10 μCi [γ^32 P]ATP (3000 ci/m mol; Amersham). The reaction was performed at room temperature for 10 mins. and terminated by the addition of 100 μl 1 N HCl. Lipids were extracted by addition of 200 μl of a 1:1 mixture of chloroform/methanol, followed by vortexing and centrifugation at 14,000×g for 10 mins. The chloroform-containing lipid phase was then re-extracted with 150 μl of a 1:1 mixture of 1N HCl/methanol, followed by vortexing and centrifugation at 14,000×g for 10 mins. The 30 μl of the chloroform phase were resolved by thin layer chromatography using a chloroform/methanol/ammonium hydroxide (90:70:20 v/v)) running buffer. […]

3T3 L1 adipocytes [2] = assay: 2-deoxyglucose uptake in 3T3 L1 adipocytes; conditions: 20 mins., EB, ATA 200 μg/ml, insulin 600 ng/ml
Method: (§2) FIG. 11 is the metabolic effects in 3T3 L1 adipocytes: Fully differentiated 3T3 L1 adipocytes were incubated with EB, ATA or fuchsin (FUCH) each at 200 μg/ml, or with 600 ng/ml of insulin for 20 mins. (A, B, C) or 5 mins. (D). CON indicates no additive.
A--2-deoxyglucose uptake. Hexose uptake was measured for 10 mins. using 50 μM 2-deoxy-(^3 H) glucose (1 μCi/ml). Non-specific uptake was determined in the presence of cytochalasin B (50 μM).

3T3 L1 adipocytes [3] = assay: Glycogen synthesis in 3T3 L1 adipocytes; conditions: 20 mins., EB, ATA 200 μg/ml, insulin 600 ng/ml
Method: as §2
B--Glycogen synthesis. Cells were incubated with (^14 C)-glucose for 10 mins. Radioactivity was determined in the precipitated glycogen fraction.

| SMILES | Concentration of maximal p185 phosphorylation ([1]; 5 mins.) | Effect on IGF-1 induced phosphorylation of the 185 kDa protein(s) ([1]; 5 mins., 300 μg/ml ATA with IGF-1) | pp185 (arbitrary units) ([1]; 5 mins., ATA fractions or crude ATA each at 200 μg/ml, scanned autoradiogram from FIG. 8B, Control 100) | Tyrosine phosphorylation of a 185 kDa protein(s) ([1]; 5 mins.) | Exposure time at which p185 phosphorylation peaked [1] | Percent dead cells (MCF-7 cells; 30 μg CX, 48 hours, ATA 100 μg/ml) | IC50 (MCF-7 cells; Homo sapiens, MCF7, starved MCF-7 cells, 30 μg/ml cycloheximide, 48 hours, read-out: IC50, concentration which inhibits 50% of cell death induced by cycloheximide) | Effect on percent of dead cells (MCF-7 cells) | Association of p85 subunit of PI3-k with IRS-2 (IRS-2) | PI3-kinase activity (anti-IRS-1 precipitable) (PI3-kinase) | Glucose uptake (3T3 L1 adipocytes [2]) | Glycogen synthesis (3T3 L1 adipocytes [3]) |
| --- | --- | --- | --- | --- | --- | --- | --- | --- | --- | --- | --- | --- |
| O=C(O)C1=CC(=C(c2ccc(O)c(C(=O)O)c2)c2ccc(O)c(C(=O)O)c2)C=CC1=O [ATA, Aurintricarboxylic acid] | 300 to 400 µg/mL | unaffected | 668 arbitrary units | enhanced tyrosine phosphorylation of a 185 kDa protein(s) | 2 min | 8 ± 3% | 18 µg/mL (≈ 42.6 µM) | reduced the percent of dead cells to that observed in cells not exposed to CX | p85 precipitates | increases PI3-kinase activity similar to IGF-1 | increase glucose uptake | increase |
| Cc1cc(-c2ccc(N=Nc3ccc4c(S(=O)(=O)O)cc(S(=O)(=O)O)c(N)c4c3O)c(C)c2)ccc1N=Nc1ccc2c(S(=O)(=O)O)cc(S(=O)(=O)O)c(N)c2c1O [EB, Evan's Blue] | 300 to 400 µg/mL | – | – | enhanced tyrosine phosphorylation of a 185 kDa protein(s) | 5 min | – | – | reduced the percent of dead cells to that observed in cells not exposed to CX | p85 precipitates | increases PI3-kinase activity similar to IGF-1 | increase glucose uptake | increase |
